Here are results for 18 molecules from patent publication US6284768A, “Src family SH2 domain inhibitors” (Boehringer Ingelheim Pharmaceuticals, Inc., priority 1999, dated 2001).

The structures appear in SMILES notation. Bounds are passed on as bounds.

Experiment [1] relates to Inter-leukin 2 (IL-2) production by activated Human Primary T Lymphocytes. As to the kind of experiment: Primary T cell assay: inhibition of IL-2 production by activated human primary CD4 positive T lymphocytes. In kind it is cell-based. The settings on record: Homo sapiens, CD4 positive, Table 5; mean IC50 value; CD4 positive T cells activated with anti-CD3/anti-CD28, IL-2 by ELISA; read-out: IC50 (blocking IL-2 production). Here is the method: Summary of Primary T Cell Assay.
Inhibitors of the lck SH2 domain were assayed for their ability to block Inter-leukin 2 (IL-2) production by activated Human Primary T Lymphocytes. Peripheral blood mononuclear cells were isolated from whole blood by centrifugation in ficoll-Pague partitioning medium. CD4 positive cells were purified using negative selection. […] The compounds, at the appropriate dilutions, were added, and the cells were incubated for 60 minutes at 37° C. The CD4 positive T cells were then activated by the addition of anti-CD3 (60 ng/mL), anti CD28 (500 ng/mL) and goat anti mouse IgG coated beads, and incubated overnight at 37° C. The cells were pelleted, and the supernatents assayed for IL-2 by ELISA.
As SH2 domain containing proteins are intracellular, any therapeutic agent must be able to cross biological membranes. […] These characteristics may be quantified by observing inhibition in IL-2 production in human blood CD4 positive T-lymphocytes after T cell receptor and CD28 cross-linking.
(In general: An ELISA detects its analyte on a solid surface through an enzyme-linked reagent.)

The target of experiment [2] is T1, p56lck GST-SH2 (lck SH2 domain) (Homo sapiens, UniProt P06239).
T1 construct: GST (N)
T1 sequence (P06239 127-224 limits assumed): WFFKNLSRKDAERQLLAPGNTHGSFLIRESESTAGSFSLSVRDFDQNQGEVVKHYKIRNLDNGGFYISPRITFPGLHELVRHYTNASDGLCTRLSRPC
As to the kind of experiment: Receptor-ligand equilibrium binding constants by surface plasmon resonance (biosensor), lck SH2 domain. The note with it: Table 1, compounds of formula (II).

`COc1ccc(Cn2ccc(C)c(NC(=O)[C@H](Cc3ccc(C(C)(C)C(=O)O)cc3)NC(=O)Cc3ccc(NCC(C)(C)C)cc3)c2=O)cc1` [Compound 132]: the IC50 (commonly the concentration that gives 50% inhibition) in experiment [1] came to 141 µM. The Kd (usually the free concentration of one partner at which half of the binding sites on the other are occupied at equilibrium, for simple one-to-one binding) in experiment [2] turned out to be 0.25 µM.

With `COc1ccc(Cn2ccc(C)c(NC(=O)[C@H](Cc3ccc(C(C)(C)C(=O)O)cc3)NC(=O)N(C)c3cccc4ccccc34)c2=O)cc1` [Compound 133], the IC50 in experiment [1] was 112 µM. The molecule further came in with a Kd in experiment [2] of 0.78 µM.

Take `CCOc1ccc(Cn2ccc(C)c(NC(=O)C(Cc3ccc(C(C)(C)C(=O)O)cc3)NC(=O)Cc3ccc4ccccc4c3)c2=O)cc1` (stereo not drawn) [Compound 135]: the IC50 in experiment [1] was determined as 35 µM. For the same molecule, the Kd in experiment [2] came to 1.3 µM.

On to `CCCCCCn1ccc(C)c(NC(=O)C(Cc2ccc(C(C)(C)C(=O)O)cc2)NC(=O)Cc2ccc3ccccc3c2)c1=O` (stereo not drawn) [Compound 137], for which, in experiment [1], the IC50 is 75 µM. The molecule also displayed a Kd in experiment [2] of 0.51 µM.

As to `CCCCCCCn1ccc(C)c(NC(=O)C(Cc2ccc(C(C)(C)C(=O)O)cc2)NC(=O)Cc2ccc3ccccc3c2)c1=O` (stereo not drawn) [Compound 138], the half-maximal inhibitory concentration (IC50) in experiment [1] came to 64 µM. In experiment [2], this molecule gave a Kd of 0.83 µM.

For the molecule `CCOc1ccc(Cn2ccc(C)c(NC(=O)C(Cc3ccc(C(C)(C)C(=O)O)cc3)NC(=O)C(C)(C)c3ccc4ccccc4c3)c2=O)cc1` (stereo not drawn) [Compound 139], the IC50 in experiment [1] stood at 56 µM. In experiment [2], this molecule displayed a Kd of 2.9 µM.

As to `CCOc1ccc(Cn2ccc(C)c(NC(=O)C(Cc3ccc(C(C)(C)C(=O)O)cc3)NC(=O)Cc3cccc4ccccc34)c2=O)cc1` (stereo not drawn) [Compound 140], in experiment [1], the IC50 is 82 µM. The molecule also yielded a Kd in experiment [2] of 0.63 µM.

For `CCOc1ccc(Cn2ccc(C)c(NC(=O)C(Cc3ccc(C(C)(C)C(=O)O)cc3)NC(=O)C(C)(C)c3cccc4ccccc34)c2=O)cc1` (stereo not drawn) [Compound 141], in experiment [1], the IC50 is 49 µM. This molecule displayed an equilibrium dissociation constant (Kd) in experiment [2] of 8.8 µM.

Take `CCCCCCn1ccc(C)c(NC(=O)C(Cc2ccc(C(C)(C)C(=O)O)cc2)NC(=O)Cc2c(F)c(F)c(F)c(F)c2F)c1=O` (stereo not drawn) [Compound 142]: the IC50 in experiment [1] amounted to 94 µM. This molecule came in with a Kd in experiment [2] of 1.3 µM.

With `Cc1ccn(CCCCC(C)C)c(=O)c1NC(=O)C(Cc1ccc(C(C)(C)C(=O)O)cc1)NC(=O)Cc1ccc2ccccc2c1` (stereo not drawn) [Compound 145], the IC50 in experiment [1] worked out at 56 µM. For the same molecule, the Kd in experiment [2] was 0.84 µM.

For the molecule `CCc1ccc(Cn2ccc(C)c(NC(=O)C(Cc3ccc(C(C)(C)C(=O)O)cc3)NC(=O)Cc3ccc4ccccc4c3)c2=O)cc1` (stereo not drawn) [Compound 150], in experiment [1], the IC50 was determined as 60 µM. This molecule returned a Kd in experiment [2] of 4.6 µM.

As to `COc1ccc(Cn2ccc(C)c(N(C)C(=O)C(Cc3ccc(C(C)(C)C(=O)O)cc3)NC(=O)Cc3ccc4ccccc4c3)c2=O)cc1` (stereo not drawn) [Compound 151], the IC50 in experiment [1] was 67 µM. In addition, the Kd in experiment [2] was above 200 µM.

As for `Cc1ccn(Cc2ccc3c(c2)OCO3)c(=O)c1NC(=O)C(Cc1ccc(C(C)(C)C(=O)O)cc1)NC(=O)C(C)(C)c1ccc2ccccc2c1` (stereo not drawn) [Compound 154], the IC50 in experiment [1] was determined as 45 µM. This molecule also yielded a Kd in experiment [2] of 1.2 µM.

As to `Cc1ccn(Cc2ccc3c(c2)OCO3)c(=O)c1NC(=O)C(Cc1ccc(C(C)(C)C(=O)O)cc1)NC(=O)Cc1ccc2ccccc2c1` (stereo not drawn) [Compound 155], in experiment [1], the IC50 amounted to 76 µM. In experiment [2], the Kd was 0.37 µM.

As to `Cc1ccn(Cc2ccccc2Oc2ccccc2)c(=O)c1NC(=O)C(Cc1ccc(C(C)(C)C(=O)O)cc1)NC(=O)Cc1ccc2ccccc2c1` (stereo not drawn) [Compound 156], the IC50 in experiment [1] turned out to be 46 µM. The Kd in experiment [2] stood at 4 µM.

For `COc1ccc(Cn2ccc(C)c(NC(=O)C(Cc3ccc(C(C)(C)C(=O)O)cc3)NC(=O)Cc3ccc(-c4ccccc4)cc3)c2=O)cc1` (stereo not drawn) [Compound 158], the IC50 in experiment [1] was 75 µM. In experiment [2], this molecule showed a Kd of 1.7 µM.

For `COc1ccc(Cn2ccc(C)c(NC(=O)C(Cc3ccc(C(C)(C)C(=O)O)cc3)NC(=O)C(C)(C)c3ccc(-c4ccccc4)cc3)c2=O)cc1` (stereo not drawn) [Compound 159], the IC50 in experiment [1] stood at 25 µM. In experiment [2], this molecule displayed a Kd of 1.4 µM.

For `COc1ccc(Cn2ccc(C)c(NC(=O)C(Cc3ccc(C(C)(C)C(=O)O)cc3)NC(=O)Cc3cccc4ccccc34)c2=O)cc1` (stereo not drawn) [Compound 169], in experiment [1], the concentration for half-maximal inhibition (IC50) turned out to be 116 µM. In experiment [2], this molecule displayed a Kd of 0.52 µM.
